pIC50: −log10 of the molar value. Active and inactive are the calls of the source. The rule behind the calls is not given here.
Tests used:
RAW264.7 [1] = assay: Antiinflammatory activity against mouse RAW264.7 cells assessed as inhibition of LPS-induced nitric oxide production at 5 uM measured after 24 hrs; assay type: functional, cell-based
RAW264.7 [2] = assay: Antiinflammatory activity against mouse RAW264.7 cells assessed as inhibition of LPS-induced nitric oxide production measured after 24 hrs; assay type: functional, cell-based; conditions: RAW264.7, 24 h
RAW264.7 [3] = assay: Cytotoxicity against mouse RAW264.7 cells assessed as reduction in cell viability at upto 25 uM measured after 24 hrs by MTT assay; assay type: toxicity, cell-based; conditions: raw264.7, 24 h
RAW264.7 [4] = assay: Inhibition of TNF-alpha production in LPS-stimulated mouse RAW264.7 cells measured after 24 hrs by ELISA; assay type: functional, cell-based; conditions: dose 3.125-12.5 µM, DDE = dose-dependent effect
RAW264.7 [5] = assay: Inhibition of IL-1beta production in LPS-stimulated mouse RAW264.7 cells measured after 24 hrs by ELISA; assay type: functional, cell-based; conditions: dose 3.125-12.5 µM, DDE = dose-dependent effect
RAW264.7 [6] = assay: Inhibition of IL-6 production in LPS-stimulated mouse RAW264.7 cells measured after 24 hrs by ELISA; assay type: functional, cell-based; conditions: dose 3.125-12.5 µM, DDE = dose-dependent effect
RAW264.7 [7] = assay: Inhibition of PGE2 production in LPS-stimulated mouse RAW264.7 cells measured after 24 hrs by ELISA; assay type: functional, cell-based; conditions: dose 3.125-12.5 µM, DDE = dose-dependent effect
RAW264.7 [8] = assay: Inhibition of IL-1beta mRNA expression in LPS-stimulated mouse RAW264.7 cells measured after 24 hrs by qRT-PCR analysis; assay type: functional, cell-based; conditions: dose 3.125-12.5 µM, DDE = dose-dependent effect
RAW264.7 [9] = assay: Inhibition of IL-6 mRNA expression in LPS-stimulated mouse RAW264.7 cells measured after 24 hrs by qRT-PCR analysis; assay type: functional, cell-based; conditions: dose 3.125-12.5 µM, DDE = dose-dependent effect
RAW264.7 [10] = assay: Inhibition of COX-2 mRNA expression in LPS-stimulated mouse RAW264.7 cells measured after 24 hrs by qRT-PCR analysis; assay type: functional, cell-based; conditions: dose 3.125-12.5 µM, DDE = dose-dependent effect
RAW264.7 [11] = assay: Downregulation of iNOS protein expression in LPS-stimulated mouse RAW264.7 cells measured after 24 hrs by Western blot analysis; assay type: functional, cell-based; conditions: dose 3.125-12.5 µM
RAW264.7 [12] = assay: Downregulation of COX-2 protein expression in LPS-stimulated mouse RAW264.7 cells measured after 24 hrs by Western blot analysis; assay type: functional, cell-based; conditions: dose 3.125-12.5 µM
RAW264.7 [13] = assay: Inhibition of LPS-induced NF-kappaB activation in mouse RAW264.7 cells assessed as upregulation of IkappaBalpha protein expression at 3.125 to 12.5 uM preincubated for 24 hrs followed by LPS addition and measured after 30 mins by Western blot analysis; assay type: cell-based; conditions: dose 3.125-12.5 µM, time 24.5 hrs
RAW264.7 [14] = assay: Inhibition of LPS-induced NF-kappaB activation in mouse RAW264.7 cells assessed as reduction in p65 expression in nucleus at 3.125 to 12.5 uM preincubated for 24 hrs followed by LPS addition and measured after 30 mins by Western blot analysis; assay type: cell-based; conditions: dose 3.125-12.5 µM
RAW264.7 [15] = assay: Inhibition of LPS-induced NF-kappaB activation in mouse RAW264.7 cells assessed as reduction in translocation of p65 from cytoplasm to nucleus at 3.125 to 12.5 uM preincubated for 24 hrs followed by LPS addition and measured after 30 mins by immunofluorescence analysis; assay type: cell-based; conditions: dose 3.125-12.5 µM
RAW264.7 [16] = assay: Inhibition of Akt phosphorylation in LPS-stimulated mouse RAW264.7 cells at 3.125 to 12.5 uM measured after 24 hrs by Western blot analysis; assay type: cell-based; conditions: dose 3.125-12.5 µM
[17] = target: c-Jun N-terminal kinase (Mus musculus) (UniProt Q91Y86+Q9WTU6+Q61831); assay: Inhibition of JNK phosphorylation in LPS-induced mouse RAW264.7 cells measured after 24 hrs by Western blot analysis; assay type: cell-based; conditions: dose 3.125-12.5 µM, DDE = dose-dependent effect
Chain of c-Jun N-terminal kinase (Mus musculus) (Q61831 whole entry, looked up): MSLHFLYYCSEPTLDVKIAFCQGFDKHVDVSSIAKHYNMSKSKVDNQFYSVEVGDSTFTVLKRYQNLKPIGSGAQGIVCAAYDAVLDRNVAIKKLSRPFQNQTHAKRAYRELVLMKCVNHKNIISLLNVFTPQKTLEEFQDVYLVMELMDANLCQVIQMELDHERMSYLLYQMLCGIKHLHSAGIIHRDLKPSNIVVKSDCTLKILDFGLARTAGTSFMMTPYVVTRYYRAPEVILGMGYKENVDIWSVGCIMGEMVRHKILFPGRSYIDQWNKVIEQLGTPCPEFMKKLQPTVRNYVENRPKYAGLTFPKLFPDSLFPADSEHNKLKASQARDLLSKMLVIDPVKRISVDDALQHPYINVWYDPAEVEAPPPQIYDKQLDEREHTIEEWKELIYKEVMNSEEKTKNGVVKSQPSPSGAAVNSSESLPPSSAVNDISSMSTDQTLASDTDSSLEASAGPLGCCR
Chain of c-Jun N-terminal kinase (Mus musculus) (Q91Y86 whole entry, looked up): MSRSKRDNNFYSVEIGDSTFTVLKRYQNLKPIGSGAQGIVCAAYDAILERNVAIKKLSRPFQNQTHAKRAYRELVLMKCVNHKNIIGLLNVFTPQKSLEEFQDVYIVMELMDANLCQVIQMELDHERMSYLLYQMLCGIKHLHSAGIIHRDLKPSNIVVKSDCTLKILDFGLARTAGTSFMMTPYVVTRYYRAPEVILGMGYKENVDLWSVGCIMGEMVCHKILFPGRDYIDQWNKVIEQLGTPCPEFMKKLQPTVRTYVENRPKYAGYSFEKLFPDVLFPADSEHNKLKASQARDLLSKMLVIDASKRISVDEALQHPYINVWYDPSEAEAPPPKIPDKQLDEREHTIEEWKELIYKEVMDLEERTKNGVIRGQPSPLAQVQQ
Chain of c-Jun N-terminal kinase (Mus musculus) (Q9WTU6 whole entry, looked up): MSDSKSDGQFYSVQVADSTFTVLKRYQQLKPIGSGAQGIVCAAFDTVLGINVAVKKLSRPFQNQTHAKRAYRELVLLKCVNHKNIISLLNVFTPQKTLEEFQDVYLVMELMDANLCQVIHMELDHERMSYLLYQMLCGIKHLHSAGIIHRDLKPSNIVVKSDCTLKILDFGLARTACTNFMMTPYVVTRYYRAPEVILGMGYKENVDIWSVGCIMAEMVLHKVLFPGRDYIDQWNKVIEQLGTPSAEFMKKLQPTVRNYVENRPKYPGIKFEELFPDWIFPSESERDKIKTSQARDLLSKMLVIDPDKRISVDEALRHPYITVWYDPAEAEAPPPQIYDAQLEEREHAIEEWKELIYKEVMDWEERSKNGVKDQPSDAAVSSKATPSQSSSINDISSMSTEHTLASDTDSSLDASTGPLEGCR

| SMILES | NO production inhibition (active/inactive call) (RAW264.7 [1]) | further results |
| --- | --- | --- |
| O=C(CN1CCSCC1)OCc1cc(O)c2c(c1)C(=O)c1cccc(O)c1C2=O | Active |  |
| O=C(CN1CCCCC1)OCc1cc(O)c2c(c1)C(=O)c1cccc(O)c1C2=O | Active |  |
| O=C(CN1CCN(c2ccc(F)cc2)CC1)OCc1cc(O)c2c(c1)C(=O)c1cccc(O)c1C2=O | Active |  |
| CC(=O)Oc1cccc2c1C(=O)c1c(OC(C)=O)cc(COC(=O)CN3CCN(c4ccc(F)cc4)CC3)cc1C2=O | Active |  |
| CC(=O)Oc1cccc2c1C(=O)c1c(OC(C)=O)cc(COC(=O)CN3CCOCC3)cc1C2=O | Active |  |
| O=C(CN1CCCC1)OCc1cc(O)c2c(c1)C(=O)c1cccc(O)c1C2=O | Active |  |
| O=C(CN1CCN(c2ccccc2)CC1)OCc1cc(O)c2c(c1)C(=O)c1cccc(O)c1C2=O | Active |  |
| CC(C)C(=O)Oc1cccc2c1C(=O)c1c(OC(=O)C(C)C)cc(COC(=O)CN3CCOCC3)cc1C2=O | Active |  |
| CN1CCN(CC(=O)OCc2cc(O)c3c(c2)C(=O)c2cccc(O)c2C3=O)CC1 |  | pIC50 (RAW264.7 [2]): 5.50; Activity (RAW264.7 [3]): Non-Toxic; inhibition (RAW264.7 [4]): Dde; inhibition (RAW264.7 [5]): Dde; inhibition (RAW264.7 [6]): Dde; inhibition (RAW264.7 [7]): Dde; inhibition (RAW264.7 [8]): Dde; inhibition (RAW264.7 [9]): Dde; inhibition (RAW264.7 [10]): Dde; Activity (RAW264.7 [11]): Active; Activity (RAW264.7 [12]): Active; inhibition (RAW264.7 [13]): Active; inhibition (RAW264.7 [14]): Active; inhibition (RAW264.7 [15]): Active; inhibition (RAW264.7 [16]): Active; inhibition [17]: Dde |
| CC(=O)Oc1cccc2c1C(=O)c1c(OC(C)=O)cc(COC(=O)CN3CCSCC3)cc1C2=O | Active |  |
| CC(C)N(C)CC(=O)OCc1cc(O)c2c(c1)C(=O)c1cccc(O)c1C2=O | Active |  |
| O=C(CN1CCOCC1)OCc1cc(OC(=O)c2ccccc2)c2c(c1)C(=O)c1cccc(OC(=O)c3ccccc3)c1C2=O | Active |  |
| CC(=O)Oc1cccc2c1C(=O)c1c(OC(C)=O)cc(COC(=O)CN3CCC(OC(C)=O)CC3)cc1C2=O | Active |  |
| CC(=O)Oc1cccc2c1C(=O)c1c(OC(C)=O)cc(COC(=O)CN3CCN(c4ccccc4)CC3)cc1C2=O | Active |  |
| O=C(CN1CCOCC1)OCc1cc(O)c2c(c1)C(=O)c1cccc(O)c1C2=O | Active |  |
| CCN(CC)CC(=O)OCc1cc(O)c2c(c1)C(=O)c1cccc(O)c1C2=O | Active |  |
| O=C(CN1CCC(O)CC1)OCc1cc(O)c2c(c1)C(=O)c1cccc(O)c1C2=O | Active |  |
| CC(=O)Oc1cccc2c1C(=O)c1c(OC(C)=O)cc(COC(=O)CN3CCCCC3)cc1C2=O | Active |  |
| CCCN(C)CC(=O)OCc1cc(O)c2c(c1)C(=O)c1cccc(O)c1C2=O | Active |  |
